Measured values as given in PMC3184957, “Improving a Natural CaMKII Inhibitor by Random and Rational Design” (PLoS ONE, 2011).
Entries after “also recorded” stand apart in the source; their conditions may differ. Read-outs that look alike come from different tables or passages of the source. Ends that are not written are not given here.

Tests used:
[1] = biological target: T1, CaMKIIα (Rattus norvegicus, UniProt P11275); test: CaMKII activity assay, phosphorylation of syntide 2; assay type: biochemical; conditions: for effect of rational mutation in CN19a2v / CN19o on CaMKII inhibition (Fig. 6): compared with CN19a2v or CN19o, Fig. 6C CaMKII 0.5 nM; for fold reduction of potency of CaMKII inhibition compared to CN19 (Ala scan): Ala substitution in CN19, Fig. 2; for effect of individual mutation of CN19 on potency of CaMKII inhibition: compared with CN19, some substitutions tested in CN19a2 or a3; for CaMKII activity remaining at 5 nM peptide: 5 nM peptide (Figs. S6, 7B); for fold greater potency of CaMKII inhibition compared to CN19: ratio of IC50 values
T1 construct: made in house; host or cells: baculovirus/Sf9 (CaMKII); bacteria (CaM)
Source text: CaM and CaMKII was purified after bacterial or baculovirus/Sf9 cell expression as described, [47]. Other kinases were purchased (PKA and PKC from PhosphoSolutions; others from SignalChem). […] All CN peptides were N-terminally acetylated and C-terminally amidated, except for the peptides used for the initial Ala scan. Substrate peptides were purchase from Genescript or as indicated. Chemicals were obtained from Sigma and Perkin Elmer. […] For all kinase activity assays, reactions were stopped by spotting onto P81 cation exchange chromatography paper (Whatman) squares. After extensive washes in water, phosphorylation of the substrate peptide bound to the P81 paper was measured by the Cherenkov method.

[2] = biological target: T2, CaMKII (Rattus norvegicus, UniProt P11275); test: CaMKII activity assay, T-site binding substrate AC3; assay type: biochemical; conditions: S- and T-site binding substrate AC3, competitive inhibition (Fig. S1); read-out: IC50 for inhibition of CaMKII activity towards AC3
T2 construct: made in house; host or cells: baculovirus/Sf9 (CaMKII); bacteria (CaM)
Procedure: Standard reactions (1 min at 30°C) were started by adding CaMKIIα (2.5 nM subunits, unless stated otherwise) to a mix of 50 mM PIPES pH 7.2, 0.1% BSA, 1 µM CaM, 1 mM CaCl2, 10 mM MgCl2, 100 µM [γ-^32P]ATP (∼1 Ci/mmole), 75 µM substrate peptide (syntide 2, or as indicated), and inhibitor peptide as indicated. Reactions with 0.1 nM CaMKII were done for 10 min.
(§1) For all kinase activity assays, reactions were stopped by spotting onto P81 cation exchange chromatography paper (Whatman) squares. After extensive washes in water, phosphorylation of the substrate peptide bound to the P81 paper was measured by the Cherenkov method.
Systematic further truncation of CN21 defined the minimal inhibitory region, CN19 (Fig. 1B). […] Thus, the peptide C-terminally truncated by 2 amino acids (now termed CN19) contains the minimal inhibitory region with full inhibitory potency. Phosphorylation of syntide 2 by CaMKII was inhibited by CN21, CN20 and CN19 with an IC50 of ∼100 nM (Fig. 1C). Syntide 2 is a “regular” S-site binding CaMKII substrate, and CN peptides inhibit its phosphorylation in a non-competitive manner. We additionally tested AC3, an S- and T-site binding substrate, as this T-site binding results in competitive inhibition by CN peptides, which also bind to the T-site. […]

[3] = biological target: T3, CaMKIα (Mus musculus, UniProt Q91YS8); test: CaMKI activity assay; assay type: biochemical; conditions: for IC50: 2.5 nM CaMKIα, 3 min, syntide 2, curve fit with Hill coefficient set as 1 (Fig. S5), read-out: IC50 of CaMKI inhibition; for effect on CaMKI activity at 5 µM peptide: 5 µM peptide (Figs. 5, 7B)
T3 construct: purchased SignalChem
Procedure: as §1
(§2) Reactions were performed essentially as described for CaMKII. However, for AMPK, 100 µM AMP was added to the reaction. For AMPK, PKC, and PKA, the reaction mix contained 1 mM EGTA instead of CaCl2 and CaM. Prior to activity assays, CaMKI (12.5 nM) and CaMKIV (80 nM) were phosphorylated by CaMKKα (1.25–4 nM) for 5 min at 30°C in Ca^2+/CaM containing buffer. Additionally, kinase amount, reaction time, and the substrate (obtained from different companies as indicated) was varied as follows: 2.5 nM CaMKIα, 3 min, syntide 2 (Genescript); 5 nM CaMKIV, 10 min, CaMK2g 345–358 peptide (Anaspec); 2.5 nM DAPK1 1–363, 3 min, MLC-derived peptide (Anaspec); 5 nM AMPK-α2β1γ1, 10 min, SAMStide (SignalChem); 5 nM PKA, 10 min, Kemptide (Genescript); 2 nM PKC, 10 min, MARCKS peptide (Anaspec). PKA and PKC were purified from bovine heart or rat brain, respectively. […] Other kinases were recombinant protein from mouse (CaMKI) or human (CaMKK, CaMKIV, DAPK1, AMPK), of the isoform and/or subunit composition indicated above.

[4] = biological target: T4, CaMKIV (Homo sapiens, UniProt Q16566); test: CaMKIV activity assay; assay type: biochemical; conditions: 5 µM peptide; 5 nM CaMKIV, 10 min, CaMK2g 345–358 peptide
T4 construct: purchased SignalChem
Procedure: as §1, §2

[5] = biological target: T5, DAPK1 1–363 (Homo sapiens, UniProt P53355); test: DAPK1 activity assay; assay type: biochemical; conditions: 5 µM peptide; 2.5 nM DAPK1 1–363, 3 min, MLC-derived peptide
T5 construct: 2.5 nM DAPK1 1–363, 3 min, MLC-derived peptide (Anaspec); purchased SignalChem
Procedure: as §1, §2

[6] = biological target: T6, AMPK-α2β1γ1 (Homo sapiens, UniProt P54619+P54646+Q9Y478); test: AMPK activity assay; assay type: biochemical; conditions: 5 µM peptide; 5 nM AMPK, 10 min, SAMStide, 100 µM AMP
T6 construct: purchased SignalChem
Procedure: as §1, §2

[7] = biological target: T7, PKA (Bos taurus, UniProt P00517); test: PKA activity assay; assay type: biochemical, bovine; conditions: 5 µM peptide; 5 nM PKA catalytic subunits, 10 min, Kemptide
T7 construct: PKA and PKC were purified from bovine heart or rat brain, respectively; purchased PhosphoSolutions; host or cells: bovine heart
Procedure: as §1, §2

[8] = test system: PKC; test: PKC activity assay; assay type: biochemical, rat; conditions: 5 µM peptide; 2 nM PKC (PKM fragment), 10 min, MARCKS peptide
Procedure: as §1, §2

[9] = in vitro [γ-32P]ATP assay, substrate syntide 2, 30°C, approximate values (Figs. 1C, 4B, 6), read-out: IC50 of inhibition of CaMKII phosphorylation of syntide 2
[10] = values compared from Figs. 1, 4 and 7, read-out: CaMKII IC50 (Fig. S5 table and legend)
[11] = class estimated from syntide 2 phosphorylation at 0.3 and 0.1 µM peptide, Ala scan peptides not N-acetylated / C-amidated, read-out: IC50 [μM] (Ala scan of CN19, Fig. 2)

T6 sequence (P54646 whole entry): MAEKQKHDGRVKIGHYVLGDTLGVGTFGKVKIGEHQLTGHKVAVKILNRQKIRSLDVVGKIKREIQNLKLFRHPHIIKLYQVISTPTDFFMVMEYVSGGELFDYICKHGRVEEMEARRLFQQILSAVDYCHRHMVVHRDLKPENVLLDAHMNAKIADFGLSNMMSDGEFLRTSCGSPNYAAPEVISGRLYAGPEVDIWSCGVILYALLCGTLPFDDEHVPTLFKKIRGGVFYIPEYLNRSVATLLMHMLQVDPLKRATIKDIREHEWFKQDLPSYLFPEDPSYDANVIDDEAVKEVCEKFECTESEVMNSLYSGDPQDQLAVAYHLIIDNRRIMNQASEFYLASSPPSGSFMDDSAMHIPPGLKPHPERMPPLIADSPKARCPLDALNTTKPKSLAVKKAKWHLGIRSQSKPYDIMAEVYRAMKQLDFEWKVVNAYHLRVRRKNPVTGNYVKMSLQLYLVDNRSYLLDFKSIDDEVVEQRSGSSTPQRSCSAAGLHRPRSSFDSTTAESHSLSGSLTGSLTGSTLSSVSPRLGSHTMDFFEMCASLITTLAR
T6 sequence (Q9Y478 whole entry partner): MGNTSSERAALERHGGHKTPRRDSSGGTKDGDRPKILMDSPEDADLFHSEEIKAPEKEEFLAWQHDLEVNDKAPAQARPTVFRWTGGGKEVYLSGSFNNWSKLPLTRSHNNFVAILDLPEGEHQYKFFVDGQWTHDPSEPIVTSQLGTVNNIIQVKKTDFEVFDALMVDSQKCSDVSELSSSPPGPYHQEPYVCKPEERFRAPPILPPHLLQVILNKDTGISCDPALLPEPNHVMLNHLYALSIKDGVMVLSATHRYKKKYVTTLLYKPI
T6 sequence (P54619 whole entry partner): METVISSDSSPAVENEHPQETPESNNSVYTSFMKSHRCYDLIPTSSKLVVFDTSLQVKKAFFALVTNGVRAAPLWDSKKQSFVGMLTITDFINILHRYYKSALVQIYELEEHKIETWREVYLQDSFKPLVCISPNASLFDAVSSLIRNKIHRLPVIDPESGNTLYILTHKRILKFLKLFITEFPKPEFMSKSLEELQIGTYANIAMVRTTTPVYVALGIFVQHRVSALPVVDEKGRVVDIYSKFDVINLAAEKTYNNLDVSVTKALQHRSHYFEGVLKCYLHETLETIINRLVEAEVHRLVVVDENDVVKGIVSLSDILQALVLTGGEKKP

Ac-KRAPKLGQIGRQKAVVIED-NH2 [CN19a2v V12Q]
effect of rational mutation in CN19a2v / CN19o on CaMKII inhibition (Fig. 6) [1]: significantly increased potency | IC50 [1, 9]: ~0.001 µM

Ac-KRPPKLGQIGRSKRVVIED-NH2 [CN19]
IC50 [1, 10]: 0.1 µM | IC50 [2]: ~1000 nM | IC50 [3]: 36000 nM | effect on CaMKI activity at 5 µM peptide [3]: did not significantly inhibit | selectivity for CaMKII vs CaMKI ([3]; ratio CaMKI IC50 / CaMKII IC50): ~360 fold

ARPPKLGQIGRSKRVVIED [K1A]
IC50 [1, 11]: < 0.3 µM

KRPPKLGQIGRAKRVVIED [S12A]
fold reduction of potency of CaMKII inhibition compared to CN19 (Ala scan) [1]: more than 3 fold | IC50 [1, 11]: > 0.3 µM

KRPPKLAQIGRSKRVVIED [G7A]
IC50 [1, 11]: < 0.3 µM

KAPPKLGQIGRSKRVVIED [R2A]
IC50 [1, 11]: < 0.3 µM

KRPPKLGQIGRSARVVIED [K13A]
IC50 [1, 11]: < 0.1 µM | effect of individual mutation of CN19 on potency of CaMKII inhibition ([1]; syntide 2): significantly increased potency

Ac-KRAPKLGQIGRVKAVVIED-NH2 [CN19a2v]
CaMKII activity remaining at 5 nM peptide [1]: ~75% | potency of CN19 combination mutants (Fig. 4) ([1]; 20 nM peptide, syntide 2): without loss of its potency; also recorded: significantly stronger compared to CN19a3 with additional S12V mutation (CN19a3v) | effect of further mutation in CN19a2 on CaMKII inhibition (Figs. S3B, S4B) ([1]; compared with CN19a2): retained potency of CaMKII inhibition | fold greater potency of CaMKII inhibition compared to CN19 [1]: ~5 fold | IC50 [1, 10]: 0.02 µM | fold greater potency of CaMKI inhibition compared to CN19 [3]: ~2 fold | fold increase of selectivity for CaMKII vs CaMKI compared to CN19 [3]: ~2.5 fold | IC50 [3]: 18000 nM | effect on CaMKI activity at 5 µM peptide [3]: did not inhibit | CaMKI activity at 20 µM peptide ([3]; 20 µM peptide, remaining activity (Fig. 5B)): ~60% | selectivity for CaMKII vs CaMKI ([3]; ratio CaMKI IC50 / CaMKII IC50): ~900 fold

KRPPKLGQIGRSKRAVIED [V15A]
IC50 [1, 11]: < 0.3 µM

KRPAKLGQIGRSKRVVIED [P4A]
IC50 [1, 11]: > 0.3 µM

KRPPKAGQIGRSKRVVIED [L6A]
IC50 [1, 11]: > 0.3 µM

KRPPALGQIGRSKRVVIED [K5A]
IC50 [1, 11]: < 0.3 µM

KRPPKLGQIGRSKRVVIAD [E18A]
IC50 [1, 11]: < 0.3 µM

KRAPKLGQIGRSKRVVIED [P3A]
IC50 [1, 11]: < 0.1 µM | effect of individual mutation of CN19 on potency of CaMKII inhibition ([1]; syntide 2): significantly increased potency

Ac-KRPPKLGQIGRSKRVVIEDD-NH2 [CN20]
effect of CN21 truncation on CaMKII inhibition (Fig. 1B) ([1]; CaMKII 20 nM, 40 µM syntide 2): not different between each other | IC50 [1, 9]: ~0.1 µM

KRPPKLGQIGRSKRVVIEA [D19A]
IC50 [1, 11]: < 0.3 µM

Ac-KRAPKLGQIGRQKAVDIED-NH2 [CN19o]
CaMKII activity remaining at 5 nM peptide [1]: blocked CaMKII activity almost completely | IC50 ([1]; CaMKII reduced to 0.1 nM, 10 min reaction, IC50 dependent on CaMKII concentration (tight binding inhibitor), read-out: IC50 for CaMKII inhibition by CN19o (Fig. 7A)): < 0.0004 µM | effect of rational mutation in CN19a2v / CN19o on CaMKII inhibition (Fig. 6) [1]: increased potency even further | fold greater potency of CaMKII inhibition compared to CN19 [1]: > 250 fold | IC50 [1, 10]: 0.0004 µM | fold increase of selectivity for CaMKII vs CaMKI compared to CN19 [3]: > 250 fold | IC50 [3]: 38000 nM | effect on CaMKI activity at 5 µM peptide [3]: did not significantly affect | CaMKII selectivity (Fig. S5 table) ([3]; ratio CaMKI IC50 / CaMKII IC50): > 100,000 x | selectivity for CaMKII vs CaMKI ([3]; ratio CaMKI IC50 / CaMKII IC50): ~100,000 fold | effect on CaMKIV activity at 5 µM [4]: did not significantly affect | effect on DAPK1 activity at 5 µM [5]: did not significantly affect | effect on AMPK activity at 5 µM [6]: did not significantly affect | effect on PKA activity at 5 µM [7]: did not significantly affect | effect on PKC activity at 5 µM [8]: did not significantly affect

KRPPKLGQIGRSKRVVAED [I17A]
IC50 [1, 11]: < 0.3 µM

KRPPKLGQIGRSKAVVIED [R14A]
IC50 [1, 11]: < 0.1 µM | effect of individual mutation of CN19 on potency of CaMKII inhibition ([1]; syntide 2): significantly increased potency

Ac-KRPPKLGQIGRSKRVVIEDDR-NH2 [CN21, reference compound]
IC50 [1]: ~0.1 µM | IC50 [2]: ~1000 nM | effect on CaMKI activity at 5 µM peptide [3]: did not significantly inhibit

Ac-KRAPKLGQIGRVKAVDIED-NH2 [CN19a2v V16D]
effect of rational mutation in CN19a2v / CN19o on CaMKII inhibition (Fig. 6) [1]: significantly increased potency | IC50 [1, 9]: ~0.001 µM

H-KRPPKLGQIGRSKRVAIED-OH [V16A]
IC50 [1, 11]: ~0.1 µM

KRPPKLGQIARSKRVVIED [G10A]
IC50 [1, 11]: > 0.3 µM

H-KRPPKLGAIGRSKRVVIED-OH [Q8A]
IC50 [1, 11]: ~0.1 µM

KRPPKLGQIGASKRVVIED [R11A]
fold reduction of potency of CaMKII inhibition compared to CN19 (Ala scan) [1]: more than 3 fold | IC50 [1, 11]: > 0.3 µM

KRPPKLGQAGRSKRVVIED [I9A]
IC50 [1, 11]: > 0.3 µM
